The results in this text go back to patent US20260209274A1, “COMPOSITION FOR SKIN REPIGMENTATION” (BELLA AURORA LABS, S.A., priority 2022, published 2026).

Non-standard residues stand in square brackets, D forms with d. No end group written: not given here. Nle = CCCC[C@H](N)C(=O)O

Assay [1] relates to reconstructed human pigmented epidermis (RHPE). As to the kind of experiment: In vitro repigmentation assay in reconstructed human pigmented epidermis (RHPE), without irradiation. The format is cell-based. Conditions: A 3.0 ppm. As to the method:
(§1) For assessing the repigmentation effect, a reconstructed epidermis model was used, namely, based on adding melanocytes and keratinocytes on a polycarbonate filter (SkinEthic® RHPE, available from the company Episkin).
(§2) Sample tissues were treated with the test products for 6 days (from day1 to day6). After each dosing, the samples were incubated at 37° C., and melanin extraction was performed after 6 days of treatment (at day7). Untreated samples were also included in the assay as controls. An evaluation of cell viability was also performed.
(§3) After treatment, melanin extraction was performed by plunging each sample filter into 800 μl of Solvable® (Perkin Elmer) and heating at 63° C. overnight. The optical density of the supernatants was measured on 300 μl extract at 405 nm using synthetic melanin as reference. 6 samples were used for each treatment and the mean value was calculated.
(§4) For each of the treatments the increase in the amount of melanin generated versus the control (0) was calculated. For analysing a possible synergistic effect, the experimental increase in melanin in the combined treatment (A+B) was compared to the theoretical increase to be expected if a simple additive effect were obtained.
Another in vitro repigmentation assay was performed using the same reconstructed epidermis model and the same procedure as disclosed in Example 1. In this case, the assay was performed without irradiation.
In this example, the same reconstructed epidermis model was used, namely, based on adding melanocytes and keratinocytes on a polycarbonate filter (SkinEthic® RHPE, available from the company Episkin), using the same protocol disclosed in Example 1.

The test system is the same in assay [2]. As to the kind of experiment: In vitro repigmentation assay in reconstructed human pigmented epidermis (RHPE), samples irradiated. In kind it is cell-based. Conditions: Example 1; irradiated with 150 J/m^2 at 300 W/m^2 on day2, day3, day4; A 3.0 ppm, B 0.4 ppm, A + B 1.5 ppm + 0.2 ppm (7.5:1). As for the experimental part: as §1, §2, §3
Another analogous assay, with the same treatments, was performed but simultaneously irradiating the samples. In this second assay, the samples were irradiated with 150 J/m^2 at 300 W/m^2 three times on consecutive days (on day2, day3, and day4 of the assay).
as §4

Where [3] appears, read: Example 1, without irradiation, 6 days of treatment, extraction at day7, B 0.4 ppm, A + B 1.5 ppm + 0.2 ppm (7.5:1) in culture medium.
[4] abbreviates: Example 1, without irradiation, 6 days of treatment, B 0.4 ppm, A + B 1.5 ppm + 0.2 ppm (7.5:1).
[5] abbreviates: Example 3, C 0.1 ppm, A + C 1.5 ppm + 0.05 ppm (30:1).
Setting [6] is: Example 3, C 0.1 ppm, A + C 1.5 ppm + 0.05 ppm (30:1) in culture medium.
Setting [7] is: Example 4, D 1.2 ppm, A + D 1.5 ppm + 0.6 ppm (2.5:1).
[8] abbreviates: Example 4, D 1.2 ppm, A + D 1.5 ppm + 0.6 ppm (2.5:1) in culture medium.

For the substance FHWRYPLPLPGQ (MIA inhibitor), the Melanin came to 34.39 µg in assay [1] (setting [3]), 36.63 µg in assay [1] (setting [6]), 33.34 µg in assay [1] (setting [8]) and 36.07 µg in assay [2]. Moreover, the “Melanin increase vs. control” value is 1.29 µg in assay [1] (setting [4]), 0.11 µg in assay [1] (setting [5]), 1.33 µg in assay [1] (setting [7]) and 1.35 µg in assay [2].

Consider His-DPhe-Arg-Trp (H[dF]RW) [C], for which, in assay [1] (setting [5]), the “Melanin increase vs. control” value turned out to be 1.93 µg. For the same substance, in assay [1] (setting [6]), the Melanin came to 38.45 µg.

Turning to “Nle-Ala-His-DPhe-Arg-Trp (Ac-[Nle]AH[dF]RW) [B]”, the Melanin in assay [1] (setting [3]) amounted to 37.31 µg; in assay [2], 38.07 µg. The “Melanin increase vs. control” value in assay [1] (setting [4]) came out at 4.21 µg; in assay [2], 3.35 µg.

For palmitoyl-prolil-proline [D], the “Melanin increase vs. control” value in assay [1] (setting [7]) was 0.48 µg. Moreover, the Melanin in assay [1] (setting [8]) is 32.49 µg.
